Data published in US20230340011A1 (Asteroid Therapeutics, priority 2022, published 2023).

Molecular target: SREBP-2 (Homo sapiens (Human), UniProt Q12772)
Test: In vitro assay SREBP-2: PathHunter U2OS SREBP-2 Nuclear Translocation Cell Line, U18666A-stimulated
Format: cell-based
Conditions: PathHunter U2OS SREBP-2 nuclear translocation cells, U18666A 10 μM, overnight (16 hours)

SMILES | IC50 [µM]
C=CC1(O)CCN(C(=O)CC[C@@H](C)[C@H]2CC[C@H]3[C@@H]4CC=C5C[C@@H](O)CC[C@]5(C)[C@H]4CC[C@]23C)CC1 [Example 146, (R)-4-((3S,8S,9S,10R,13R,14S,17R)-3-hydroxy-10,13-dimethyl-2,3,4,7,8,9,10,11,12,13,14,15,16,17-tetradecahydro-1H-cyclopenta[a]phenanthren-17-yl)-1-(4-hydroxy-4-vinylpiperidin-1-yl) pentan-1-one] | < 0.25
C[C@H](CCC(=O)N1CCN(c2ncccn2)CC1)[C@H]1CC[C@H]2[C@@H]3CC=C4C[C@@H](O)CC[C@]4(C)[C@H]3CC[C@]12C [Example 397, (R)-4-((3S,8S,9S,10R,13R,14S,17R)-3-hydroxy-10,13-dimethyl-2,3,4,7,8,9,10,11,12,13,14,15,16,17-tetradecahydro-1H-cyclopenta[a]phenanthren-17-yl)-1-(4-(pyrimidin-2-yl)piperazin-1-yl)pentan-1-one] | < 0.25
Cc1cncc(O[C@@H](C)[C@H]2CC[C@H]3[C@@H]4CC=C5C[C@@H](O)CC[C@]5(C)[C@H]4CC[C@]23C)c1 [Example 272, (3S,8S,9S,10R,13S,14S,17S)-10,13-dimethyl-17-((S)-1-((5-methylpyridin-3-yl)oxy)ethyl)-2,3,4,7,8,9,10,11,12,13,14,15,16,17-tetradecahydro-1H-cyclopenta[a]phenanthren-3-ol] | < 0.25
C[C@H](CCC(=O)Nc1ccc(C(N)=O)cc1)[C@H]1CC[C@H]2[C@@H]3CC=C4C[C@@H](O)CC[C@]4(C)[C@H]3CC[C@]12C [Example 556, 4-((R)-4-((3S,8S,9S,10R,13R,14S,17R)-3-hydroxy-10,13-dimethyl-2,3,4,7,8,9,10,11,12,13,14,15,16,17-tetradecahydro-1H-cyclopenta[a]phenanthren-17-yl)pentanamido)benzamide] | < 0.25
C[C@H](CCC(=O)NCC(=O)O)[C@H]1CC[C@H]2[C@@H]3CC=C4C[C@@H](O)CC[C@]4(C)[C@H]3CC[C@]12C [Example 107, ((R)-4-((3S,8S,9S,10R,13R,14S,17R)-3-hydroxy-10,13-dimethyl-2,3,4,7,8,9,10,11,12,13,14,15,16,17-tetradecahydro-1H-cyclopenta[a]phenanthren-17-yl)pentanoyl)glycine] | > 10
COC(=O)N1CCN(C(=O)O[C@@H](C)[C@H]2CC[C@H]3[C@@H]4CC=C5C[C@@H](O)CC[C@]5(C)[C@H]4CC[C@]23C)CC1 [Example 466, 1-(1S)-1-[(1S,3aS,3bS,7S,9aR,9bS,11aS)-7-hydroxy-9a,11a-dimethyl-1H,2H,3H,3aH,3bH,4H,6H,7H,8H,9H,9aH,9bH,10H,11H,11aH-cyclopenta[a]phenanthren-1-yl]ethyl 4-methyl piperazine-1,4-dicarboxylate] | 0.25 to 1
C[C@H](CCC(=O)N1CCC([C@H](O)C(F)(F)F)CC1)[C@H]1CC[C@H]2[C@@H]3CC=C4C[C@@H](O)CC[C@]4(C)[C@H]3CC[C@]12C [Example 468, (4R)-4-[(1R,3aS,3bS,7S,9aR,9bS,11aR)-7-hydroxy-9a,11a-dimethyl-1H,2H,3H,3aH,3bH,4H,6H,7H,8H,9H,9aH,9bH,10H,11H,11aH-cyclopenta[a]phenanthren-1-yl]-1-{4-[(1 S)-2,2,2-trifluoro-1-hydroxyethyl]piperidin-1-yl}pentan-1-one] | < 0.25
COC(=O)N1CCN(C(=O)O[C@@H](C)[C@H]2CC[C@H]3[C@@H]4CC=C5C[C@@H](O)CC[C@]5(C)[C@H]4CC[C@]23C)CC1 [Example 237, 1-(1S)-1-[(1S,3aS,3bS,7S,9aR,9bS,11aS)-7-hydroxy-9a,11a-dimethyl-1H,2H,3H,3aH,3bH,4H,6H,7H,8H,9H,9aH,9bH,10H,11H,11aH-cyclopenta[a]phenanthren-1-yl]ethyl 4-methyl piperazine-1,4-dicarboxylate] | < 0.25
C[C@H](OC(=O)N(C)C)[C@H]1CC[C@H]2[C@@H]3CC=C4C[C@@H](O)CC[C@]4(C)[C@H]3CC[C@]12C [Example 242, (1S)-1-[(1S,3aS,3bS,7S,9aR,9bS,11aS)-7-hydroxy-9a,11a-dimethyl-1H,2H,3H,3aH,3bH,4H,6H,7H,8H,9H,9aH,9bH,10H,11H,11aH-cyclopenta[a]phenanthren-1-yl]ethyl N,N-dimethylcarbamate] | 0.25 to 1
C[C@H](OCC(=O)N1CCC(C)(CO)CC1)[C@H]1CC[C@H]2[C@@H]3CC=C4C[C@@H](O)CC[C@]4(C)[C@H]3CC[C@]12C [Example 366, 2-((S)-1-((3S,8S,9S,10R,13S,14S,17S)-3-hydroxy-10,13-dimethyl-2,3,4,7,8,9,10,11,12,13,14,15,16,17-tetradecahydro-1H-cyclopenta[a]phenanthren-17-yl)ethoxy)-1-(4-(hydroxymethyl)-4-methylpiperidin-1-yl)ethan-1-one] | 0.25 to 1
C[C@H](CCC(=O)N(C)C)[C@H]1CC[C@H]2[C@@H]3CC=C4C[C@H](O)CC[C@]4(C)[C@H]3CC[C@]12C [Example 122, (R)-4-((3R,8S,9S,10R,13R,14S,17R)-3-hydroxy-10,13-dimethyl-2,3,4,7,8,9,10,11,12,13,14,15,16,17-tetradecahydro-1H-cyclopenta[a]phenanthren-17-yl)-N,N-dimethylpentanamide] | > 10
C[C@H](CCC(=O)N1CC[C@H](Nc2ccncn2)C1)[C@H]1CC[C@H]2[C@@H]3CC=C4C[C@@H](O)CC[C@]4(C)[C@H]3CC[C@]12C [Example 531, (R)-4-((3S,8S,9S,10R,13R,14S,17R)-3-hydroxy-10,13-dimethyl-2,3,4,7,8,9,10,11,12,13,14,15,16,17-tetradecahydro-1H-cyclopenta[a]phenanthren-17-yl)-1-((S)-3-(pyrimidin-4-ylamino)pyrrolidin-1-yl)pentan-1-one] | < 0.25
C[C@H](CCC(=O)N1CC[C@H](C(=O)N(C)C)C1)[C@H]1CC[C@H]2[C@@H]3CC=C4C[C@@H](O)CC[C@]4(C)[C@H]3CC[C@]12C [Example 537, (S)-1-((R)-4-((3S,8S,9S,10R,13R,14S,17R)-3-hydroxy-10,13-dimethyl-2,3,4,7,8,9,10,11,12,13,14,15,16,17-tetradecahydro-1H-cyclopenta[a]phenanthren-17-yl)pentanoyl)-N,N-dimethylpyrrolidine-3-carboxamide] | 0.25 to 1
COc1cccnc1CC[C@@H](C)[C@H]1CC[C@H]2[C@@H]3CC=C4C[C@@H](O)CC[C@]4(C)[C@H]3CC[C@]12C [Example 186, (1R,3aS,3bS,7S,9aR,9bS,11aR)-1-[(2R)-4-(3-methoxypyridin-2-yl)butan-2-yl]-9a,11a-dimethyl-1H,2H,3H,3aH,3bH,4H,6H,7H,8H,9H,9aH,9bH,10H,11H,11aH-cyclopenta[a]phenanthren-7-ol] | < 0.25
C[C@H](Oc1cnccc1CO)[C@H]1CC[C@H]2[C@@H]3CC=C4C[C@@H](O)CC[C@]4(C)[C@H]3CC[C@]12C [Example 268, (3S,8S,9S,10R,13S,14S,17S)-17-((S)-1-((4-(hydroxymethyl)pyridin-3-yl)oxy)ethyl)-10,13-dim ethyl-2,3,4,7,8,9,10,11,12,13,14,15,16,17-tetradecahydro-1H-cyclopenta[a]phenanthren-3-ol] | 0.25 to 1
C[C@H](CNC(=O)N(C)C)[C@H]1CC[C@H]2[C@@H]3CC=C4C[C@@H](O)CC[C@]4(C)[C@H]3CC[C@]12C [Example 347, 3-((S)-2-((3S,8S,9S,10R,13S,14S,17R)-3-hydroxy-10,13-dimethyl-2,3,4,7,8,9,10,11,12,13,14,15,16,17-tetradecahydro-1H-cyclopenta[a]phenanthren-17-yl)propyl)-1,1-dimethylurea] | 0.25 to 1
C[C@H](COc1ccc(CO)cn1)[C@H]1CC[C@H]2[C@@H]3CC=C4C[C@@H](O)CC[C@]4(C)[C@H]3CC[C@]12C [Example 259, (3S,8S,9S,10R,13S,14S,17R)-17-((S)-1-((5-(hydroxymethyl)pyridin-2-yl)oxy)propan-2-yl)-10,13-dimethyl-2,3,4,7,8,9,10,11,12,13,14,15,16,17-tetradecahydro-1H-cyclopenta[a]phenanthren-3-ol] | 0.25 to 1
C[C@H](CCC(=O)N1CCN(C2CC2)CC1)[C@H]1CC[C@H]2[C@@H]3CC=C4C[C@@H](O)CC[C@]4(C)[C@H]3CC[C@]12C [Example 558, (4R)-4-[(1R,3aS,3bS,7S,9aR,9bS,11aR)-7-hydroxy-9a,11a-dimethyl-1H,2H,3H,3aH,3bH,4H,6H,7H,8H,9H,9aH,9bH,10H,11H,11aH-cyclopenta[a]phenanthren-1-yl]-1-(4-cyclopropylpiperazin-1-yl)pentan-1-one] | < 0.25
Cc1noc(C2CCN(C(=O)CC[C@@H](C)[C@H]3CC[C@H]4[C@@H]5CC=C6C[C@@H](O)CC[C@]6(C)[C@H]5CC[C@]34C)CC2)n1 [Example 505, (R)-4-((3S,8S,9S,10R,13R,14S,17R)-3-hydroxy-10,13-dimethyl-2,3,4,7,8,9,10,11,12,13,14,15,16,17-tetradecahydro-1H-cyclopenta[a]phenanthren-17-yl)-1-(4-(3-methyl-1,2,4-oxadiazol-5-yl)piperidin-1-yl)pentan-1-one] | < 0.25
CCC1(O)CCN(C(=O)CC[C@@H](C)[C@H]2CC[C@H]3[C@@H]4CC=C5C[C@@H](O)CC[C@]5(C)[C@H]4CC[C@]23C)CC1 [Example 129, (R)-1-(4-ethyl-4-hydroxypiperidin-1-yl)-4-((3S,8S,9S,10R,13R,14S,17R)-3-hydroxy-10,13-dimethyl-2,3,4,7,8,9,10,11,12,13,14,15,16,17-tetradecahydro-1H-cyclopenta[a]phenanthren-17-yl)pentan-1-one] | < 0.25
Cc1ccc(OC[C@@H](C)[C@H]2CC[C@H]3[C@@H]4CC=C5C[C@@H](O)CC[C@]5(C)[C@H]4CC[C@]23C)nc1 [Example 441, (3S,8S,9S,10R,13S,14S,17R)-10,13-dimethyl-17-((S)-1-((5-methylpyridin-2-yl)oxy)propan-2-yl)-2,3,4,7,8,9,10,11,12,13,14,15,16,17-tetradecahydro-1H-cyclopenta[a]phenanthren-3-ol] | 0.25 to 1
